Data reported in patent US20210153516A1, “COMPOSITION AND METHOD OF TREATING PLANTS AND PLANT PARTS WITH VOLATILE SPOILAGE ORGANISM CONTROLLING ACTIVES” (AGROFRESH INC., priority 2019, published 2021).

How the values were obtained:
[1] = tested on: B. cinerea (Botrytis cinerea or Gray mold); experiment: B. cinerea infection assessment for blueberries after thermal fogging (Example 3); type: in vivo; conditions: untreated blueberries placed adjacent to treated blueberries one day after treatment, 10 mg active ingredient per kg
Experimental: (§1) The experiment was conducted by 1) setting up a 4.3 m^3 rectangular plastic tent, 2) placing blueberries in open clamshells in the tent, 3) preparing a foggable formulation by dissolving volatile compound into a solvent mixture containing 50% w/w propylene glycol, 47.8% w/w isopropyl alcohol, 2% w/w sorbitan mono-oleate, and 0.2% of citric acid to achieve about 10% w/w volatile compound, 4) inoculating the blueberries before treatment, 5) applying the formulation through a thermal fogger with set temperature at 200° C. and flow rate of about 70 ml/min, and target use rate of 10 mg active ingredient per kg of blueberries, and 6) storing the blueberries under refrigerated condition of about 4° C. after treatment, and at room temperature to incubate for observation of disease infections.
B. cinerea (Botrytis cinerea or Gray mold) infection was assessed at 4 and 13 days incubation time for both untreated blueberries in isolation and untreated blueberries placed adjacent to the treated blueberries one day after the treatment.

B. cinerea [2] = experiment: B. cinerea infection assessment for blueberries after thermal fogging (Example 4); type: in vivo, Botrytis cinerea
Experimental: as §1
B. cinerea infection was assessed at 13, 16, and 24 days incubation time under room temperature shelf life conditions for both untreated blueberry in isolation, untreated blueberry placed adjacent to the treated blueberry six days after the treatment, and the treated blueberries.

B. cinerea [3] = experiment: B. cinerea infection assessment for strawberries after dipping treatment; type: in vivo, Botrytis cinerea
Experimental: The experiment was conducted by 1) preparing a dipping treatment solution by dissolving volatile compound into 20% v/v isopropanol water solution to achieve 10 ppm concentration, 2) pre-inoculate all the strawberries before treatment, 3) dipping strawberries in the prepared solution for 30 seconds, 4) storing the strawberries under refrigerated conditions and at room temperature to incubate for disease observations. B. cinerea infection was assessed at 3 and 5 days incubation time for both untreated strawberries in isolation and untreated strawberries placed adjacent to the treated strawberries.

[4] = tested on: Penicillium digitatum (Green mold) and Penicillium italicum (Blue mold); experiment: Green mold and Blue mold infection assessment for mandarins after dipping treatment; type: in vivo; conditions: equally mixed mandarins of untreated and treated (dip about 60 seconds); 10 days incubation at room temperature
Experimental: The experiment was conducted by 1) preparing a dipping treatment solution by diluting 360 ml concentrated formulation containing 10% w/w volatile compound, 45% w/w propylene glycol, 43.02% w/w isopropanol, 1.8% w/w sorbitan mono-oleate, 0.18% w/w citric acid into 60 L water, 2) dipping a box of mandarins into the treatment solution bath for about 60 seconds, 3) after air drying of the mandarins, preparing a box of mandarins containing 50% untreated mandarins and 50% treated mandarins, 4) storing the mandarins under 3-5° C. refrigerated conditions for 7 days, and then storing at room temperature with high humidity to incubate for disease observations. Penicillium digitatum (Green mold) and Penicillium italicum (Blue mold) infection incidence of the mandarins was assessed at 10 days incubation time under room temperature shelf life conditions for both untreated mandarins in isolation and equally mixed untreated and treated mandarins to simulate uneven drench or dip treatment applications.

[5] = tested on: Penicillium digitatum (Green mold) and Penicillium italicum (Blue mold); experiment: Green mold and Blue mold infection assessment for mandarins after spray treatment; type: in vivo; conditions: equally mixed mandarins of untreated and treated (spray 60 ml treatment solution per box); 10 days incubation at room temperature
Experimental: The experiment was conducted by 1) preparing a spray treatment solution by diluting […] concentrated formulation containing 10% w/w volatile compound, 45% w/w propylene glycol, 43.02% w/w isopropanol, 1.8% w/w sorbitan mono-oleate, 0.18% w/w citric acid into 1 L water, 2) spraying a box of mandarins with the use rate of 60 ml treatment solution per box, 3) after air drying of the mandarins, preparing a box of mandarins containing 50% untreated mandarins and 50% treated mandarins, 4) storing the mandarins under 3-5° C. refrigerated conditions for 7 days, and then storing at room temperature with high humidity to incubate for disease observations. Penicillium Digitatum (Green mold) and Penicillium italicum (Blue mold) infection incidence of the mandarins was assessed at 10 days incubation time under room temperature shelf life conditions for both untreated mandarins in isolation and equally mixed untreated and treated mandarins to simulate uneven spray treatment applications.

[6] = treated blueberries, thermal fogging 10 mg active ingredient per kg, 13 days incubation
[7] = treated blueberries, thermal fogging 10 mg active ingredient per kg, 16 days incubation
[8] = treated blueberries, thermal fogging 10 mg active ingredient per kg, 24 days incubation
[9] = untreated blueberries placed adjacent to treated blueberries 6 days after treatment, 13 days incubation
[10] = untreated blueberries placed adjacent to treated blueberries 6 days after treatment, 16 days incubation
[11] = untreated blueberries placed adjacent to treated blueberries 6 days after treatment, 24 days incubation

SMILES: OB1OCc2cc(F)ccc21 [5-fluoro-1-hydroxy-3H-2,1-benzoxaborole]
- B. cinerea incidence ([1]; 4 days incubation): 2.6%
- B. cinerea severity ([1]; 4 days incubation): 0.2%
- B. cinerea incidence ([1]; 13 days incubation): 19.2%
- B. cinerea severity ([1]; 13 days incubation): 10.6%
- B. cinerea incidence (B. cinerea [2]; [6]): 2.8%
- B. cinerea severity (B. cinerea [2]; [6]): 1.1%
- B. cinerea incidence (B. cinerea [2]; [7]): 2.8%
- B. cinerea severity (B. cinerea [2]; [7]): 1.1%
- B. cinerea incidence (B. cinerea [2]; [8]): 5.6%
- B. cinerea severity (B. cinerea [2]; [8]): 3.3%
- B. cinerea incidence (B. cinerea [2]; [9]): 16.7%
- B. cinerea severity (B. cinerea [2]; [9]): 4.7%
- B. cinerea incidence (B. cinerea [2]; [10]): 23.0%
- B. cinerea severity (B. cinerea [2]; [10]): 6.2%
- B. cinerea incidence (B. cinerea [2]; [11]): 33.3%
- B. cinerea severity (B. cinerea [2]; [11]): 15.0%
- B. cinerea severity (B. cinerea [3]; treated strawberries, dipped 30 seconds in 10 ppm solution, 3 days incubation): 0.0%
- B. cinerea severity (B. cinerea [3]; treated strawberries, dipped 30 seconds in 10 ppm solution, 5 days incubation): 0.0%
- B. cinerea severity (B. cinerea [3]; untreated strawberries placed adjacent to treated strawberries, 3 days incubation): 5.4%
- B. cinerea severity (B. cinerea [3]; untreated strawberries placed adjacent to treated strawberries, 5 days incubation): 43.8%
- Green and Blue mold incidence [4]: 4.1%
- Green and Gray molds incidence [5]: 0.64%
